Test results: US7915242B2, “Vitamin D receptor antagonists and their use in treating asthma” (Wisconsin Alumni Research Foundation, priority 2004, dated 2011)
Entries after “also recorded” stand apart in the source; their conditions may differ.

How the values were obtained:
[1] = test system: Brown Norway rats; assay: Ovalbumin-induced allergic asthma, BALF cell counts; format: in vivo, rat; details: aerosolized 500 ng/Kg on Days 14 and 16
Method: 6-7 week old Brown Norway male rats were obtained from Harlan Sprague-Dawley (Madison, Wis.) and housed in shoebox cages. Animals were provided a purified rodent diet prepared in-house containing 0.47% calcium and 0.3% phosphorus, and water ad libitum. The diet was supplemented with 1.6 IU vitamin D3/g. Rats were sensitized on Days 0 and 7 with a 1 mL intraperitoneal (I.P.) injection of 1 mg/mL OVA in phosphate-buffered saline (PBS) precipitated 1:1 with Imject Alum (PIERCE, IL). Control animals were sensitized with PBS. The animals were then challenged with aerosolized OVA [1% (w/v)] or aerosolized PBS (control) on Days 14 and 16. This OVA-sensitization and -challenge protocol has been used extensively to generate asthma symptoms in rats. Aerosolized-PBS (200 μL) or aerosolized-OVA (200 μL) was delivered by using the Microsprayer Syringe Model 1C (PennCentury, Philadelphia, Pa.). Aerosolized-vehicle [aqueous solution containing 30% (v/v) propylene glycol and 5% ethanol], or aerosolized-1,25(OH)2D3 (500 ng/Kg of body weight) was administered on Days 14 and 16. There were 4 groups in the study. Group 1: Sensitized and challenged with PBS, no treatment. Group 2: Sensitized and challenged with OVA, no treatment. Group 3: Sensitized and challenged with OVA, vehicle treatment on Days 14 and 16. Group 4: Sensitized and challenged with OVA, 1,25(OH)2D3 treatment on Days 14 and 16. At the end of the study, 17 days after the first I.P. injection, lungs were lavaged five times with 5 mL/each of calcium- and magnesium-free PBS containing 0.05 mM EDTA (ethylenediamine tetraacetic acid). The lavage fluid was centrifuged at 1,000×g for 10 minutes. The supernatant was removed, and the cell pellet was resuspended in 1 mL cold PBS. Total cell counts in bronchoalveolar lavage fluid (BALF) was performed using a hemocytometer. Slides of BALF were prepared by cytospin-2 cytocentrifugation of an aliquot of the cell suspension, and a differential cell count to determine the number of leukocytes was performed after staining with Diff-Quick (IMED, Inc., CA).

[2] = test system: BALBc mice; assay: Asthma model, ovalbumin-sensitized mice; format: in vivo, mouse; details: preliminary work
Method: The fourth test performed on the analogs is treatment using an asthma model. For this test, BALBc mice are injected for 7 days with 10 micrograms of ovalbumin together with alum to sensitize the animals. These are given by intraperitoneal injection and at the end of 7 days, the asthmatic reaction to an inhaled dose of ovalbumin is examined. In this test, the ovalbumin as a 0.2% solution is delivered by nebulizer to the mouse. Air flow measures are carried out as described by Isenberg-Feig et al. in Current Allergy and Asthma Reports, 3:70-78 (2003) which is hereby incorporated by reference in its entirety and for all purposes as if fully set forth herein. Furthermore, the lungs are removed and sectioned for analysis. The degree of invasion of eosinophils into the bronchial tissue is used as a non-subjective measurement of asthmatic response. After the animals are sensitized and given the expected responses to ovalbumin, the animals are subjected to an aerosol that includes either a vitamin D antagonist of the invention or 1α,25-(OH)2D3. After exposure to the vitamin D antagonist of the invention or the 1α,25-(OH)2D3, the animals will be exposed to a nebulized dose of 0.2% ovalbumin. The presence of the antagonist will be found to block the asthmatic response to the inhaled ovalbumin. […]

[3] = test system: mouse model of asthma; details: Matheu et al., J Allergy Clin Immunol 112:585, 2003; cited from earlier work
[4] = molecular target: T1, full-length recombinant rat vitamin D receptor (Rattus norvegicus, UniProt P13053); assay: Vitamin D receptor binding assay, competition with [3H]-1,25(OH)2D3; details: relative to 1α,25-dihydroxyvitamin D3; FIG. 1
T1 construct: Full-length recombinant rat receptor is/was expressed in E. coli BL21(DE3) Codon Plus RIL cells; histidine tag (C); made in house; host or cells: E. coli BL21(DE3) Codon Plus RIL
T1 sequence (P13053 1-423): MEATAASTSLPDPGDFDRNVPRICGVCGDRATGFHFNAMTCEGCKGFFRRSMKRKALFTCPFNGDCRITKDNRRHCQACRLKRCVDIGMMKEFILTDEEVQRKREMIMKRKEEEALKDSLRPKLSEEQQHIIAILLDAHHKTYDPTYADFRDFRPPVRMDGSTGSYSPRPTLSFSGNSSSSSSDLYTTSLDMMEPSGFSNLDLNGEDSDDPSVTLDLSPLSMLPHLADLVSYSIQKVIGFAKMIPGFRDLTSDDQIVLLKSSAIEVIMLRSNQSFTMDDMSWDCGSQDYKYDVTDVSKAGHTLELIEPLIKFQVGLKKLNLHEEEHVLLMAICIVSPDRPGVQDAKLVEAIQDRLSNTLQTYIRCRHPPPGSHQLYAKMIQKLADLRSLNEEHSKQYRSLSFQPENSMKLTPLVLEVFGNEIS
Source text: Full-length recombinant rat receptor is/was expressed in E. coli BL21(DE3) Codon Plus RIL cells and purified to homogeneity using two different column chromatography systems. The first system is/was a nickel affinity resin that utilizes the C-terminal histidine tag on this protein. The protein that is/was eluted from this resin is/was further purified using ion exchange chromatography (S-Sepharose Fast Flow). Aliquots of the purified protein are/were quick frozen in liquid nitrogen and stored at −80° C. until use. For use in binding assays, the protein is/was diluted in TEDK50 (50 mM Tris, 1.5 mM EDTA, pH 7.4, 5 mM DTT, 150 mM KCl) with 0.1% Chaps detergent. The receptor protein and ligan concentration is/was optimized such that no more than 20% of the added radiolabeled ligand is/was bound to the receptor.
Unlabeled ligands are/were dissolved in ethanol and the concentrations determined using UV spectrophotometry (1,25(OH)2D3: molar extinction coefficient=18,200 and λmax=265 nm; Analogs: molar extinction coefficient=42,000 and λmax=252 nm). […]
Radiolabeled and unlabeled ligands are/were added to 100 mcl of the diluted protein at a final ethanol concentration of ≦10%, mixed and incubated overnight on ice to reach binding equilibrium. […] Total binding is/was determined from the tubes containing only radiolabeled ligand.

[5] = test system: Human promyelocytic leukemia (HL60) cells; assay: HL-60 cellular differentiation test (NBT reduction); format: cell-based; details: relative to 1α,25-dihydroxyvitamin D3; FIGS. 2-3
Method: The compounds of the invention are/were dissolved in ethanol and the concentrations are/were determined using UV spectrophotometry. Serial dilutions are/were prepared so that a range of drug concentrations can be tested without changing the final concentration of ethanol (≦0.2%) present in the cell cultures.
Antagonism is/was tested by adding a combination of 1,25(OH)2D3 and the putative antagonist in the same well keeping the final ethanol concentration the same.
Human promyelocytic leukemia (HL60) cells are/were grown in RPMI-1640 medium containing 10% fetal bovine serum. The cells are/were incubated at 37° C. in the presence of 5% CO2.
HL60 cells are/were plated at 1.2×10^5 cells/mL. Eighteen hours after plating, cells in duplicate are/were treated with compound of the invention in ethanol. Four days post-dose, the cells are/were harvested and a nitro blue tetrazolium reduction assay is/was performed (Collins et al., J. Exp. Med. 149, 969-974, Appendix A (1979)). The percentage of differentiated cells is/was determined by counting a total of 200 cells and recording the number that contained intracellular black-blue formazan deposits. Verification of differentiation to monocytic cells is/was determined by measuring phagocytic activity. All drug concentrations are/were tested in duplicate.

[6] = test system: vitamin D 24-hydroxylase (CYP24) promoter luciferase reporter; assay: Reporter gene assay, CYP24 promoter-luciferase in ROS-17/2.8 osteoblast cells; format: cell-based; details: Ros17/2.8 (bone) cells; FIG. 4
Source text: A reporter gene assay is/was used in which the promoter to the vitamin D 24-hydroxylase, i.e. CYP24 is/was placed in front of a luciferase reporter and is/was permanently transfected into ROS-17/2.8 osteoblast cell cultures as previously described (see Arbour, N. C., T. K. Ross, C. Zierold, J. M. Prahl, and H. F. DeLuca. A Highly Sensitive Method for Large-Scale Measurements of 1,25-Dihydroxyvitamin D. Analyt. Biochem. 255, 148-154, (1998) which is hereby incorporated by reference in its entirety and for all purposes as if fully set forth herein). These cells are/were grown to almost confluency at which time the analog or the standard 1α,25-(OH)2D3 is/was added. After 4 hours of incubation, the cells are/were ruptured and luciferase is/was measured by the methods provided by the Promega Kit. These experiments show the level of activity of the vitamin D analogs of the invention at transcription.
The phrase “RLU” refers to relative luciferase units.

[7] = test system: vitamin D 24-hydroxylase (CYP24) promoter luciferase reporter; assay: Competition for transcription activity, analog plus 1,25(OH)2D3 in the reporter gene assay; format: cell-based; details: with 1α,25-dihydroxyvitamin D3; FIGS. 5-6
Method: Antagonism is/was tested by adding a combination of 1,25(OH)2D3 and the putative antagonist in the same well keeping the ethanol concentration the same.
The third test that is performed is competition for transcription activity. Again, the ROS-17/2.8 osteoblast cells that contain the reporter gene system described above are employed. A dose-response curve is constructed with 1α,25-(OH)2D3 and another 1α,25-(OH)2D3 dose response curve is prepared with increasing concentrations of antagonist or analogs of the invention. Analogs that prevent 1α,25-(OH)2D3-induced transcription, are defined using this technique as either weak agonist or a complete antagonist of the VDR for 1α,25-(OH)2D3.

[8] = test system: Sprague-Dawley rats; assay: Bone calcium mobilization (serum calcium); format: in vivo, rat; details: four ip doses, even at 2,900 pmol/day, FIG. 7
Method: (§1) Male, weanling Sprague-Dawley rats are/were placed on Diet 11 (0.47% Ca) diet +AEK for one week followed by Diet 11 (0.02% Ca) +AEK for 3 weeks. The rats are/were then switched to a diet containing 0.47% Ca for one week followed by two weeks on a diet containing 0.02% Ca. Dose administration began during the last week on 0.02% calcium diet. Four consecutive ip doses are/were given approximately 24 hours apart. Twenty-four hours after the last dose, blood is/was collected from the severed neck, and the concentration of serum calcium is/was determined as a measure of bone calcium mobilization. The first 10 cm of the intestine is/was also collected for intestinal calcium transport analysis using the everted gut sac method.
(§2) Antagonism is/was tested by administering a combination of 1,25(OH)2D3 and the putative antagonist to the animal simultaneously.

[9] = test system: Sprague-Dawley rats; assay: Intestinal calcium transport (everted gut sac); format: in vivo, rat; details: four ip doses, FIG. 8
Method: as §1, §2

Row | Compound | total cell counts in BALF after OVA challenge ([1]; FIG. 9) | number of eosinophils in BALF after OVA challenge ([1]; FIG. 11) | number of macrophages in BALF after OVA challenge ([1]; versus control (PBS), FIG. 10) | severity of the asthmatic response to ovalbumin [2] | asthma symptoms in a mouse model of asthma [3] | binding to the vitamin D receptor (competition with [3H]-1,25-(OH)2-D3) [4] | induction of differentiation of HL-60 cells [5] | in vitro transcription activity (reporter gene) [6] | antagonistic activity on transcription when administered along with the native hormone [7] | bone calcium mobilization (calcemic activity) [8] | intestinal calcium transport [9]
1 | C=C1/C(=C\C=C2/CCC[C@]3(C)[C@@H]([C@H](C)CCCC(C)(C)O)CC[C@@H]23)C[C@@H](O)C[C@@H]1O [1,25(OH)2D3, 1α,25-dihydroxycholecalciferol] | reduced; also recorded: inhibits the OVA (ovalbumin)-mediated increase in total number of cells in BALF | increased OVA-induced eosinophils recruitment; also recorded: increases the OVA-induced eosinophils count in BALF compared to the control | decreased the number of macrophages; also recorded: decreases the number of macrophages compared to the control | increases the severity of the asthmatic response to ovalbumin | both triggers and exacerbates asthma symptoms | – | – | – | – | – | –
2 | C=C1[C@H](O)CC(=C/C=C2\CCC[C@]3(C)[C@@H]([C@H](C)/C=C/[C@@H](OCCCC)C4(C(=O)OCCCC)CC4)CC[C@@H]23)C[C@H]1O [CN-67, (22E)-(24R)-24-butoxy-25-carbobutoxy-2-methylene-26,27-cyclo-22-dehydro-1α-hydroxy-19-norvitamin D3] | – | – | – | – | – | significantly less active than 1α,25-dihydroxyvitamin D3 | less active than 1α,25-dihydroxyvitamin D3 | does not appear to be active in causing transcription | appears to exhibit antagonistic activity | – | –
3 | C=C1[C@H](O)CC(=C/C=C2\CCC[C@]3(C)[C@@H]([C@H](C)/C=C/[C@@H](O)C4(C(=O)OCCCC)CC4)CC[C@@H]23)C[C@H]1O [OU-72, (22E)-(24R)-25-carbobutoxy-2-methylene-26,27-cyclo-22-dehydro-1α,24-dihydroxy-19-norvitamin D3] | – | – | – | – | – | approximately equal to the native hormone | less active than 1α,25-dihydroxyvitamin D3 | active in stimulating transcription | shows antagonistic activity | no calcemic activity | retain the ability to elevate intestinal calcium transport
